Values after ≈ are worked out from the molar mass of the structure shown. Like-named read-outs stand apart in the source and are kept apart here.
Columns and labels:
PBP1a/1b = experiment: Membrane PBP binding assay, competition with Bocillin FL; parameters: species or system E. coli MC4100; conditions: E. coli MC4100 membranes, 12.5 μM Bocillin FL
Description: (§1) Membrane extracts containing PBPs were obtained as described above. Briefly, all species were grown in 1 L of TSB until the OD600 reached 0.9. The washed pellet was incubated with lysozyme (400 μg/mL), DNase (10 μg/mL) RNase(10 μg/mL) and anti-protease cocktail (200 mg/20 mL). Lysis was done with a French press (20,000 psi) and membrane protein were pelleted by ultracentrifugation steps (100,000 × g). The pellet was suspended in a minimal volume (300–500 μL) of KP 0.05 M buffer at pH 7. The protein concentration in the membrane preparations was determined with the Micro BCA TM Protein Assay Kit (Thermo Fisher Scientific, Rockford, IL) using bovine serum albumin as a standard.
(§2) The PBP binding assay was done as described previously[36],[56],[57]. For each antibiotic concentration tested, a quantity of 25 to 40 μg of membrane preparation was used as the source of PBPs, depending on the species. For the purified PaPBP3, 150 ng was used in the assay. First, increasing concentrations of the test antibiotic was added to the membrane or purified PaPBP3 preparations and incubated for 10 min at 30 °C. The reporter molecule Bocillin FL was then added at 12.5 μM for the membrane PBPs preparations and at 500 nM for the pure PaPBP3 samples for an additional 20 min at 30 °C. All reactions were stopped with the addition of the Laemmli-loading buffer (Bio-Rad) containing fresh β-mercaptoethanol (Sigma). All reactions were then heated at 100°C for 3 min before migration on SDS-polyacrylamide discontinuous gel system (7.5% stacking and 10% separating). Control samples without Bocillin FL were also included to highlight autofluorescent proteins that are not PBPs.
(§3) To be able to visualize labeled PBPs after electrophoresis, gels were rinsed in water and fixed in a solution of 50% methanol and 7% acetic acid for 30 min. The fluorescent images of gels were obtained with the Typhoon FLA 9500 instrument (GE-Healthcare Bio-Sciences Inc., Baie-d’Urfé, QC, CA) using a 473 nm excitation wavelength. To obtain quantifiable data, the software Quantity One 1D analysis was used (version 4.6.6; Bio-Rad Laboratories, Richmond, CA). The volume (intensity × constant area) of each PBP was measured. […] All IC50 data were obtained from at least two independent PBP binding assays using two different sets of compound concentrations using a linear regression. The PBP profiles were confirmed, and the PBP numbering were determined using published data and individual molecular weights. […] For example, amdinocillin (Sigma) was used for PBP2 identification. […] The IC50 for PBP 2 of P. aeruginosa was measured by including the SDS-PAGE comigrating autofluorescent protein in the background, as done previously.

PBP3 = target: T1, PBP3 (Escherichia coli, UniProt P0AD68); experiment: as above; parameters: species or system E. coli MC4100; conditions: E. coli MC4100 membranes; read-out: IC50 PBP3
T1 construct: using bacterial membranes as the source of PBPs; endogenous in cells; host or cells: E. coli MC4100 membrane preparation
Description: as §1, §2, §3

PBP4 = target: T2, PBP4 (Escherichia coli, UniProt P24228); experiment: as above; parameters: species or system E. coli MC4100; conditions: E. coli MC4100 membranes; read-out: IC50 PBP4
T2 construct: using bacterial membranes as the source of PBPs; endogenous in cells; host or cells: E. coli MC4100 membrane preparation
Description: as §1, §2, §3

PBP2 [1] = target: T3, PBP2 (Escherichia coli, UniProt P0AD65); experiment: as above; parameters: species or system E. coli MC4100; conditions: E. coli MC4100 membranes; read-out: IC50 PBP2
T3 construct: using bacterial membranes as the source of PBPs; endogenous in cells; host or cells: E. coli MC4100 membrane preparation
Description: as §1, §2, §3

E. coli ATCC 25922 = experiment: MIC, broth microdilution (CLSI); format: cell-based, Escherichia coli; conditions: for MIC ratio 0/1: 0 and 1 µg/mL supplemental iron (Table S2); for MIC ratio 1/0: 1 versus 0 µg/mL supplemental iron (peer review file table)
Description: (§4) All bacterial strains (see description and sources Table S1) were stored at −80 °C, and grown on tryptone soya agar (TSA) at 35 °C. The iron-deprived (ID)-MHBCA (cation-adjusted Muller-Hinton Broth, Becton Dickinson, Mississauga, ON, Canada) medium was prepared as reported by refs. [21],[50]. Briefly, MHBCA was treated with 10% Chelex® 50-100 mesh (Sigma) and stirred for 6 h at room temperature. The resin was removed by filtration. Divalent Ca^2+ (CaCl2), Mg^2+ (MgCl2), and Zn^2+(ZnSO4), were then added in the iron-depleted medium at 22, 12, and 1 μg/ml respectively. Finally, the pH was adjusted to 7.3, and the medium was sterilized with a 0.2-μm filter. Regular MHBCA (i.e., not treated with Chelex®) was used to compare the inhibitory activity of conjugates in iron-sufficient conditions.
(§5) Minimal inhibitory concentrations (MICs) were performed using a broth microdilution technique according to the Clinical and Laboratory Standards Institute (CLSI) guidelines. MICs were determined in MHBCA and in ID-MHBCA. To check the impact of β-lactamases, MICs in the presence of a β-lactamase inhibitor were also determined. The inhibitor was homogenized at 2X the final concentration and added to the bacterial inoculum just before distributing cells into the wells containing the drug dilutions. The final concentration of each inhibitor was 4 μg/mL for clavulanic acid (tested against K. pneumoniae) and 200 μg/mL for 3-aminophenylboronic acid (tested against P. aeruginosa and A. baumannii).

PBP2 [2] = target: PBP2 (Klebsiella pneumoniae, UniProt A6T696); experiment: Membrane PBP binding assay, competition with Bocillin FL; parameters: species or system K. pneumoniae ATCC 13883; conditions: K. pneumoniae ATCC 13883 membranes; read-out: IC50 PBP2
Description: as §1, §2, §3

E. coli ΔfhuA = experiment: MIC, Keio mutant; format: cell-based, Escherichia coli
Description: as §4, §5

E. coli ΔcirA = experiment: MIC, Keio mutant; format: cell-based, Escherichia coli
Description: as §4, §5

E. coli Δfiu = experiment: MIC, Keio mutant; format: cell-based, Escherichia coli
Description: as §4, §5

P. aeruginosa ATCC 27853 = experiment: MIC, broth microdilution (CLSI); format: cell-based, Pseudomonas aeruginosa; conditions: for MIC in combination with PAβN: + 25 µg/mL PAβN
Description: as §4, §5

E. coli ΔacrAB = experiment: MIC, efflux pump mutant; format: cell-based, Escherichia coli
Description: as §5

[3] = ID-MHBCA (−), 0 µg/mL supplemental iron, read-out: MIC
[4] = MHBCA (+), no inhibitor, read-out: MIC
[5] = Escherichia coli, ATCC25922, ID-MHBCA + 1 µg/mL supplemental iron
[6] = Pseudomonas aeruginosa, ATCC27853, ID-MHBCA (−), 0 µg/mL supplemental iron, read-out: MIC
[7] = Pseudomonas aeruginosa, ATCC27853, ID-MHBCA + 1 µg/mL supplemental iron, read-out: MIC
[8] = Pseudomonas aeruginosa, ATCC27853, ID-MHBCA, + 200 μg/mL APB, read-out: MIC with β-lactamase inhibitor (βI)
[9] = Pseudomonas aeruginosa, ATCC27853, MHBCA (+), no inhibitor, read-out: MIC
[10] = Pseudomonas aeruginosa, ATCC27853, MHBCA, + 200 μg/mL 3-aminophenylboronic acid (APB), read-out: MIC with β-lactamase inhibitor (βI)

Compound	IC50 (PBP1a/1b) [µM]	IC50 (PBP3) [µM]	IC50 (PBP4) [µM]	IC50 (PBP2 [1]) [µM]	MIC ratio 0/1 (E. coli ATCC 25922; ID-MHBCA)	MIC ratio 1/0 (E. coli ATCC 25922; ID-MHBCA)	IC50 (PBP2 [2]) [µM]	MIC (E. coli Δfiu; MHBCA) [µM]	MIC (P. aeruginosa ATCC 27853; [3]) [µM]	MIC (P. aeruginosa ATCC 27853; [4]) [µM]	MIC in combination with PAβN (P. aeruginosa ATCC 27853; MHBCA) [µM]	MIC (E. coli ATCC 25922; [5]) [µM]	MIC (E. coli ΔfhuA; Escherichia coli, ID-MHBCA) [µM]	MIC (E. coli ΔcirA; Escherichia coli, ID-MHBCA) [µM]	MIC (E. coli Δfiu; Escherichia coli, ID-MHBCA) [µM]	MIC (P. aeruginosa ATCC 27853; [6]) [µM]	MIC (P. aeruginosa ATCC 27853; [7]) [µM]	MIC (P. aeruginosa ATCC 27853; [8]) [µM]	MIC (P. aeruginosa ATCC 27853; [9]) [µM]	MIC (P. aeruginosa ATCC 27853; [10]) [µM]	also measured
N[C@@H](C(=O)N[C@@H]1C(=O)N2C(C(=O)O)=C(Cl)CC[C@H]12)c1ccccc1 [LOR, loracarbef, reference compound]	42.5 ± 11.8	14.9 ± 4.3	31.6 ± 9	> 50	2	2	> 50	6.3 (≈ 2.2 µg/mL)	>200	>200	> 200										MIC (E. coli ATCC 25922; ID-MHBCA + 0.1 µg/mL supplemental iron): 3.1 µM; MIC (E. coli ATCC 25922; ID-MHBCA + 1 µg/mL supplemental iron): 3.1 µM; MIC (E. coli ATCC 25922; MHBCA (+)): 3.1 µM (≈ 1.08 µg/mL); MIC (E. coli ATCC 25922; iron-deprived ID-MHBCA (−), 0 µg/mL supplemental iron): 1.6 µM (≈ 0.56 µg/mL); MIC (E. coli ΔfhuA; ID-MHBCA): 6.3 µM (≈ 2.2 µg/mL); MIC (E. coli ΔfhuA; MHBCA): 6.3 µM (≈ 2.2 µg/mL); MIC (E. coli ΔcirA; ID-MHBCA): 13 µM (≈ 4.55 µg/mL); MIC (E. coli ΔcirA; MHBCA): 13 µM (≈ 4.55 µg/mL); MIC (E. coli Δfiu; ID-MHBCA): 6.3 µM (≈ 2.2 µg/mL); MIC (P. aeruginosa ATCC 27853; ID-MHBCA + 1 µg/mL supplemental iron, read-out: MIC): > 200 µM; MIC (P. aeruginosa ATCC 27853; ID-MHBCA, + 200 μg/mL APB, read-out: MIC with β-lactamase inhibitor (βI)): >200 µM; MIC (P. aeruginosa ATCC 27853; MHBCA, + 200 μg/mL 3-aminophenylboronic acid (APB), read-out: MIC with β-lactamase inhibitor (βI)): >200 µM; MIC (E. coli ΔacrAB; ΔacrAB): 3.1 µM (≈ 1.08 µg/mL)
CC1(C)S[C@@H]2[C@H](NC(=O)[C@H](N)c3ccccc3)C(=O)N2[C@H]1C(=O)O [AMP, ampicillin, reference compound]	7.22 ± 0.07	1.92 ± 0.94	8.3 ± 0.8	11.4 ± 2.4			9.2 ± 1.9		>200	>200	> 200	25	25 (≈ 8.74 µg/mL)	25 (≈ 8.74 µg/mL)	25 (≈ 8.74 µg/mL)	> 200	> 200	100	> 200	100	MIC (E. coli ΔacrAB; Escherichia coli): 6.3 µM (≈ 2.2 µg/mL)
CC1(C)SC2C(NC(=O)C(NC(=O)CN(CCCCNC(=O)c3cccc(O)c3O)C(=O)c3cccc(O)c3O)c3ccccc3)C(=O)N2C1C(=O)O (centres unmarked) [BAMP, bis-catechol (azotochelin)-ampicillin]	2.4 ± 0.54	0.091 ± 0.007	> 50	2.26 ± 0.57	4	4	5.1 ± 2.1	0.2 (≈ 0.15 µg/mL)			0.2	0.2	0.1 (≈ 0.075 µg/mL)	0.2 to 13 (≈ 0.15 to 9.75 µg/mL)	0.024 (≈ 0.018 µg/mL)	0.1 (≈ 0.075 µg/mL)	13	0.1	1.6 (≈ 1.2 µg/mL)	1.6	MIC (E. coli ATCC 25922; Escherichia coli, ATCC25922, ID-MHBCA + 0.1 µg/mL supplemental iron): 0.1 µM; MIC (E. coli ATCC 25922; Escherichia coli, ATCC25922, MHBCA (+)): 0.1 µM (≈ 0.075 µg/mL); MIC (E. coli ATCC 25922; Escherichia coli, ATCC25922, iron-deprived ID-MHBCA (−), 0 µg/mL supplemental iron): 0.05 µM (≈ 0.0375 µg/mL); MIC ratio unconjugated β-lactam/conjugate (E. coli ATCC 25922; ID-MHBCA): 256; MIC ratio unconjugated β-lactam/conjugate (AMP/BAMP, LOR/BLOR, CEF/MCEF) (E. coli ATCC 25922; MHBCA): 128; MIC (E. coli ΔcirA; Escherichia coli, MHBCA): 13 µM (≈ 9.75 µg/mL); MIC (E. coli Δfiu; Escherichia coli, MHBCA): 0.1 to 0.4 µM (≈ 0.075 to 0.3 µg/mL); potentiation of activity (MIC decrease) by PAβN (P. aeruginosa ATCC 27853; 25 µg/mL PAβN): 8 fold; MIC ratio unconjugated β-lactam/conjugate (P. aeruginosa ATCC 27853; ID-MHBCA): >2048; MIC ratio 0/1 (P. aeruginosa ATCC 27853; ID-MHBCA, 0 and 1 µg/mL supplemental iron (Table S2)): 128; MIC ratio 1/0 (P. aeruginosa ATCC 27853; ID-MHBCA, 1 versus 0 µg/mL supplemental iron (peer review file table)): 128; MIC ratio unconjugated β-lactam/conjugate (P. aeruginosa ATCC 27853; MHBCA): >128; MIC (P. aeruginosa ATCC 27853; Pseudomonas aeruginosa, ATCC27853, ID-MHBCA + 0.1 µg/mL supplemental iron, read-out: MIC): 0.8 µM; MIC (E. coli ΔacrAB; Escherichia coli): 0.05 µM (≈ 0.0375 µg/mL)

— publication PMC12592502, “Unraveling the mechanisms behind the enhanced efficacy of β-lactam-based sideromycins” (Communications Biology, 2025)
